Data as given in US20090111847A1, “PREPARATION METHOD AND USE OF COMPOUNDS HAVING HIGH INSECTICIDAL ACTIVITIES” (priority 2006, published 2009).

What was measured:
[1] = tested on: Aphis craccivora; assay: Insecticidal activity against Aphis craccivora by immersing (mortality after 24 hours); type: in vivo; conditions: for Mortality (%) (500 ppm) Aphis craccivora: in vivo; for mortality at 500 ppm: Aphis craccivora, 24 h, read-out: Mortality (%) (500 ppm) Aphis craccivora
Description: Aphis, which belongs to Homoptera and has a piercing-sucking mouthpart, is a common insect for agricultural plant. Aphis craccivora was tested by the way of immersing.
Test method: exactly weighed various samples were independently added to N,N-dimethylformamide to form a 10 g/L stock solution. The mixture was diluted with 0.2 mL/L aqueous Triton X-100 solution to a concentration of 500 ug/mL. After stably sucking on bean sprout, the adult aphis without wings together with bean sprout was dipped into the dilution of 500 ug/mL, 100 ug/mL, 50 ug/mL, 25 ug/mL, 12.5 ug/mL, 6.25 ug/mL (LD50 was calculated), taken out after 5 seconds, and the excess dilution was sucked out with bibulous paper and the adult aphis without wings was incubated in clean vessel at a constant temperature of 23° C. Each concentration was repeated for 3 times and the control group contained 0.2 mL/L aqueous Triton X-100 solution. The number of killed aphis was counted after 24 hours to calculate the mortality.

[2] = tested on: Nilaparvata lugens; assay: Insecticidal activity against Nilaparvata lugens by spraying (mortality after 24 hours); type: in vivo; conditions: for Mortality (%) (500 ppm) Nilaparvata lugens: spraying 2 ml, counted after 24 hours; for mortality at 500 ppm: Nilaparvata lugens, 24 h, read-out: Mortality (%) (500 ppm) Nilaparvata lugens
Description: Plant hopper, which belongs to Homoptera and has a piercing-sucking mouthpart, is a common insect for agricultural plant. Nilaparvata lugens was tested by the way of spraying.
Test method: the compound to be tested was exactly formulated into a solution having a certain concentration and clean water was used as a blank control. Each process was repeated for 3 tumblers (3 times). 2 ml of solution was sprayed uniformly to each tumbler by a mini manual sprayer. 10 Nilaparvata lugens were introduced to every sink 6 hours before spraying. Three series of experiments were conducted. The number of killed Nilaparvata lugens was counted after 24 hours to calculate the mortality.

Compound	Mortality (%) (500 ppm) Aphis craccivora [1]	Mortality (%) (500 ppm) Nilaparvata lugens [2]	mortality at 500 ppm [1] [%]	mortality at 500 ppm [2] [%]
CCC1C(O)N2CCN(Cc3ccc(Cl)nc3)C2=C([N+](=O)[O-])C1(C)C (stereo not drawn) [Compound 37]	99	88	–	–
COC1CC([N+](=O)[O-])=C2N(Cc3ccc(Cl)nc3)CCN2C1O (stereo not drawn) [Compound 46, 1-((6-chloropyridin-3-yl)methyl)-6-methoxy-8-nitro-1,2,3,5,6,7-hexahydroimidazo[1,2-a]pyridin-5-ol]	–	–	100	73
COC1CC(C)C([N+](=O)[O-])=C2N(CC3CCOC3)CCN21 (stereo not drawn) [Compound 16]	45	67	–	–
COC1CC(C)(C)C([N+](=O)[O-])=C2N(Cc3ccc(Cl)nc3)CCN21 (stereo not drawn) [Compound 32]	100	100	–	–
CCCCOC1CC(C)C([N+](=O)[O-])=C2N(Cc3ccc(Cl)nc3)CCN21 (stereo not drawn) [Compound 7, 5-butoxy-1-((6-chloropyridin-3-yl)methyl)-7-methyl-8-nitro-1,2,3,5,6,7-hexahydroimidazo[1,2-a]pyridine]	–	–	80	100
CC1C(O)N2CCN(Cc3ccc(Cl)nc3)C2=C([N+](=O)[O-])C1(C)C (stereo not drawn) [Compound 36]	94	97	–	–
CCCOC1C(C)CC([N+](=O)[O-])=C2N(Cc3ccc(Cl)nc3)CCN21 (stereo not drawn) [Compound 20]	86	98	–	–
CCC1CC([N+](=O)[O-])=C2N(Cc3ccc(Cl)nc3)CCN2C1O (stereo not drawn) [Compound 26]	100	100	–	–
CC(C)OC1CC(C)C([N+](=O)[O-])=C2N(Cc3ccc(Cl)nc3)CCN21 (stereo not drawn) [Compound 6]	100	100	–	–
CCOC1CC([N+](=O)[O-])=C2N(Cc3ccc(Cl)nc3)CCN2C1O (stereo not drawn) [Compound 47]	98	91	–	–
CCCC1C(C)C([N+](=O)[O-])=C2N(Cc3ccc(Cl)nc3)CCN2C1O (stereo not drawn) [Compound 34]	95	90	–	–
CC1(C)CC(O)N2CCN(Cc3ccc(Cl)nc3)C2=C1[N+](=O)[O-] (stereo not drawn) [Compound 31]	96	100	–	–
CC1CC(O)N2CCN(CC3CCOC3)C2=C1[N+](=O)[O-] (stereo not drawn) [Compound 15]	24	35	–	–
CC1CC(O)N2CCN(Cc3ccc(Cl)nc3)C2=C1[N+](=O)[O-] (stereo not drawn) [Compound 1, 1-((6-chloropyridin-3-yl)methyl)-7-methyl-8-nitro-1,2,3,5,6,7-hexahydroimidazo[1,2-a]pyridin-5-ol]	–	–	100	100
CC1CC([N+](=O)[O-])=C2N(Cc3ccc(Cl)nc3)CCN2C1O (stereo not drawn) [Compound 18, 1-((6-chloropyridin-3-yl)methyl)-6-methyl-8-nitro-1,2,3,5,6,7-hexahydroimidazo[1,2-a]pyridin-5-ol]	–	–	98	100
CCCC1CC(OCC)N2CCN(Cc3ccc(Cl)nc3)C2=C1[N+](=O)[O-] (stereo not drawn) [Compound 25]	96	100	–	–
CCCC1CC(O)N2CCN(Cc3ccc(Cl)nc3)C2=C1[N+](=O)[O-] (stereo not drawn) [Compound 24]	97	89	–	–
CCOC1CC(C)C([N+](=O)[O-])=C2N(CC3CCOC3)CCN21 (stereo not drawn) [Compound 17]	89	100	–	–
CCOC1CC(C)C([N+](=O)[O-])=C2N(Cc3cnc(Cl)s3)CCN21 (stereo not drawn) [Compound 13]	98	100	–	–
CCCOC1CC(C)C([N+](=O)[O-])=C2N(Cc3cnc(Cl)s3)CCN21 (stereo not drawn) [Compound 14]	100	100	–	–
COC1CC(O)N2CCN(Cc3cnc(Cl)s3)C2=C1[N+](=O)[O-] (stereo not drawn) [Compound 44]	100	97	–	–
COC1CC(C)C([N+](=O)[O-])=C2N(Cc3ccc(Cl)nc3)CCN21 (stereo not drawn) [Compound 2, 1-((6-chloropyridin-3-yl)methyl)-5-methoxy-7-methyl-8-nitro-1,2,3,5,6,7-hexahydroimidazo[1,2-a]pyridine]	–	–	98	100
O=[N+]([O-])C1=C2N(Cc3ccc(Cl)nc3)CCN2C(O)CC1c1ccccc1 (stereo not drawn) [Compound 38, 1-((6-chloropyridin-3-yl)methyl)-8-nitro-7-phenyl-1,2,3,5,6,7-hexahydroimidazo[1,2-a]pyridin-5-ol]	–	–	24	0
CCCC1CC([N+](=O)[O-])=C2N(Cc3ccc(Cl)nc3)CCN2C1O (stereo not drawn) [Compound 28]	100	96	–	–
